# Reference: PMC3335777 (Journal of the American Chemical Society, 2012)
# Read-outs that look alike come from different tables or passages of the source.
# Key:
# FabF [1] = target: T1, FabF (Staphylococcus aureus, UniProt Q8NXE1); format: biochemical
# T1 sequence (Q8NXE1 1-414): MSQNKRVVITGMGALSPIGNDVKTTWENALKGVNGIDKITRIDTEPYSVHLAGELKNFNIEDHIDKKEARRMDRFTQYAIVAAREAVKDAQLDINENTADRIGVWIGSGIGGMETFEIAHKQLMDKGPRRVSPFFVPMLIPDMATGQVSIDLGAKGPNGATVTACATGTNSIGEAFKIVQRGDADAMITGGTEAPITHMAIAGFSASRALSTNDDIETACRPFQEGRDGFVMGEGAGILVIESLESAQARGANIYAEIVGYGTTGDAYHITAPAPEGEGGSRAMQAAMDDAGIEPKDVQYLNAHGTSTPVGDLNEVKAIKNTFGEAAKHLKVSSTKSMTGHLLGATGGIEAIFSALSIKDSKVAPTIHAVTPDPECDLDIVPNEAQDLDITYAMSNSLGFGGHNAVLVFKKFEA
# FabF [2] = target: T1, FabF; test: […]-malonyl-CoA FASII elongation assay; format: biochemical
Substance,IC50 (FabF [1]) [µg/mL],IC50 (FabF [2]) [µg/mL]
fasamycin A [compound 1],50,
fasamycin B [compound 2],,80
